We go through 20 compounds from US8859596B2, “Compounds as cannabinoid receptor ligands” (priority 2008, dated 2014).

The Ki is a dissociation constant, usually derived from enzyme kinetics or from competition with a known ligand.

Where two headings read alike, the source gives them in different places.

One assay has as its target rat CB2 (Rattus norvegicus (Rat), UniProt Q9QZN9). Briefly: rat CB2 radioligand binding assay ([3H]CP 55,940 competition). The protocol:
(§1) The CB1 and CB2 radioligand binding assays described herein are utilized to ascertain the affinity of compounds of the present application for binding to CB2 relative to CB1 receptors.
HEK293 cells stably expressing rat CB2 receptors were grown until a confluent monolayer was formed. Briefly, the cells were harvested and homogenized in TE buffer (50 mM Tris-HCl, 1 mM MgCl2, and 1 mM EDTA) using a polytron for 2×10 second bursts in the presence of protease inhibitors, followed by centrifugation at 45,000×g for 20 minutes. The final membrane pellet was re-homogenized in storage buffer (50 mM Tris-HCl, 1 mM MgCl2, and 1 mM EDTA and 10% sucrose) and frozen at −78° C. until used. Saturation binding reactions were initiated by the addition of membrane preparation (protein concentration of 20 μg/well for rat CB2) into wells of a deep well plate containing [^3H]CP 55,940 (120 Ci/mmol, a nonselective CB agonist commercially available from Tocris) in assay buffer (50 mM Tris, 2.5 mM EDTA, 5 mM MgCl2, and 0.5 mg/mL fatty acid free BSA, pH 7.4). After 45 min incubation at 30° C., binding reaction was terminated by the addition of 300 μl/well of cold assay buffer followed by rapid vacuum filtration through a UniFilter-96 GF/C filter plates (pre-soaked in 1 mg/mL BSA for 2 hours). The bound activity was counted in a TopCount using Microscint-20. Saturation experiments were conducted with twelve concentrations of [^3H]CP 55,940 ranging from 0.01 to 8 nM. Competition experiments were conducted with 0.5 nM [^3H]CP 55,940 and five concentrations of displacing ligands selected from the range of 0.01 nM to […] addition of 10 μM unlabeled CP 55,940 (Tocris, Ellisville, Mo.) was used to assess nonspecific binding.

The target in a further assay is human CB2 receptors (Homo sapiens (Human), UniProt P34972). The assay is described as follows: human CB2 radioligand binding assay ([3H]CP 55,940 competition). The procedure:
as §1
HEK293 cells stably expressing human CB2 receptors were grown until a confluent monolayer was formed. Briefly, the cells were harvested and homogenized in TE buffer (50 mM Tris-HCl, 1 mM MgCl2, and 1 mM EDTA) using a polytron for 2×10 second bursts in the presence of protease inhibitors, followed by centrifugation at 45,000×g for 20 minutes. The final membrane pellet was re-homogenized in storage buffer (50 mM Tris-HCl, 1 mM MgCl2, and 1 mM EDTA and 10% sucrose) and frozen at −78° C. until used. Saturation binding reactions were initiated by the addition of membrane preparation (protein concentration of 5 μg/well for human CB2) into wells of a deep well plate containing [^3H]CP 55,940 (120 Ci/mmol, a nonselective CB agonist commercially available from Tocris) in assay buffer (50 mM Tris, 2.5 mM EDTA, 5 mM MgCl2, and 0.5 mg/mL fatty acid free BSA, pH 7.4). After 90 min incubation at 30° C., binding reaction was terminated by the addition of 300 μL/well of cold assay buffer followed by rapid vacuum filtration through a UniFilter-96 GF/C filter plates (pre-soaked in 1 mg/mL BSA for 2 hours). The bound activity was counted in a TopCount using Microscint-20. Saturation experiments were conducted with twelve concentrations of [^3H]CP 55,940 ranging from 0.01 to 8 nM. Competition experiments were conducted with 0.5 nM [^3H]CP 55,940 and five concentrations (0.01 nM to 10 μM) of displacing ligands. The addition of 10 μM unlabeled CP 55,940 (Tocris, Ellisville, Mo.) was used to assess nonspecific binding.

The mark [1] stands for this setting: HEK293 membranes, 0.5 nM [3H]CP 55,940, read-out: rat CB2 (Ki).
Setting [2] is: HEK293 membranes, 0.5 nM [3H]CP 55,940, read-out: human CB2 (Ki).

Sequence of rat CB2 (Q9QZN9 whole entry): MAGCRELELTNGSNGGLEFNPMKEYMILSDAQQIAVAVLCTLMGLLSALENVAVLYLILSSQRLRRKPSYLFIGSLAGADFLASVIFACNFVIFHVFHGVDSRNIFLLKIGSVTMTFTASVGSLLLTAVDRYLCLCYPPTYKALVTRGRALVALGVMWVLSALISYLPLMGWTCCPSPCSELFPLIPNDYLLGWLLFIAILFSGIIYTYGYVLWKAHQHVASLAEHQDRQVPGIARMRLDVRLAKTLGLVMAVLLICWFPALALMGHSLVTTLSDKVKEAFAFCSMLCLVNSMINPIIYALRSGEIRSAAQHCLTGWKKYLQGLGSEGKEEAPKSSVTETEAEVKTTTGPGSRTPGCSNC
Sequence of human CB2 receptors (P34972 whole entry): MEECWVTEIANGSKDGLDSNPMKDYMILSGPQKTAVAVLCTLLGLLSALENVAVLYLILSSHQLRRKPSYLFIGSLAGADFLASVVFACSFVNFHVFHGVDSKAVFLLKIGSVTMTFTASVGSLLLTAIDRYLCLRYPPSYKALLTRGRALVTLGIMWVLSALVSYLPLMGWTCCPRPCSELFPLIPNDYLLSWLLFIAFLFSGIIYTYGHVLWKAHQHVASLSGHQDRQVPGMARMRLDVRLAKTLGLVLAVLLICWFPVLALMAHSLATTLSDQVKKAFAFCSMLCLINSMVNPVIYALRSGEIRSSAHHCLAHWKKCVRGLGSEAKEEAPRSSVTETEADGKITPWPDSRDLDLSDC

Take `Cn1c(C(C)(C)C)c/c(=N\C(=O)c2cc(C(F)(F)F)ccc2ONC(C)(C)C)n1CC1CCC1` [Example 155, 2-[(tert-butylamino)oxy]-N-[(3E)-5-tert-butyl-2-(cyclobutylmethyl)-1-methyl-1,2-dihydro-3H-pyrazol-3-ylidene]-5-(trifluoromethyl)benzamide]: the figures for the Ki on rat CB2 and on human CB2 receptors were 14 nM and 27 nM, respectively.
As for `CC(C)Cn1nc(C(C)(C)C)s/c1=N\C(=O)c1cc(C(F)(F)F)ccc1ONC(C)(C)C` [Example 152, 2-[(tert-butylamino)oxy]-N-[(2Z)-5-tert-butyl-3-isobutyl-1,3,4-thiadiazol-2(3H)-ylidene]-5-(trifluoromethyl)benzamide], the values for the inhibition constant Ki on rat CB2 (setting [1]) and at human CB2 receptors (setting [2]) were 31 nM and 29 nM, respectively.
For `Cn1c(C(C)(C)C)c/c(=N\C(=O)c2cc(C(F)(F)F)ccc2ONC(C)(C)C)n1CC1CC1` [Example 146, 2-[(tert-butylamino)oxy]-N-[(3E)-5-tert-butyl-2-(cyclopropylmethyl)-1-methyl-1,2-dihydro-3H-pyrazol-3-ylidene]-5-(trifluoromethyl)benzamide], the Ki on rat CB2 was found to be 14 nM; at human CB2 receptors it was 54 nM.
On to `CCCCn1nc(C(C)(C)C)s/c1=N\C(=O)c1cc(C(F)(F)F)ccc1N(C)N(C)C(=O)OC(C)(C)C` [Example 184], for which the Ki at rat CB2 (setting [1]) was found to be 35 nM; on human CB2 receptors (setting [2]) it was 279 nM.
The matching figures for `CCCCn1/c(=N/C(=O)c2cc(C(F)(F)F)ccc2ONC(C)C)cc(C(C)(C)C)n1C` [Example 159, N-[(3E)-2-butyl-5-tert-butyl-1-methyl-1,2-dihydro-3H-pyrazol-3-ylidene]-2-[(isopropylamino)oxy]-5-(trifluoromethyl)benzamide]: 5.2 nM and 16 nM.
Turning to `CCCCn1/c(=N/C(=O)c2cc(C(F)(F)F)ccc2ONC(C)(C)C)cc(C(C)(C)C)n1C` [Example 149, 2-[(tert-butylamino)oxy]-N-[(3E)-2-butyl-5-tert-butyl-1-methyl-1,2-dihydro-3H-pyrazol-3-ylidene]-5-(trifluoromethyl)benzamide], the Ki at rat CB2 came to 5.5 nM; on human CB2 receptors, 77 nM.
Regarding `COCCn1nc(C(C)(C)C)s/c1=N\C(=O)c1cc(C(F)(F)F)ccc1ONC(C)(C)C` [Example 158, 2-[(tert-butylamino)oxy]-N-[(2Z)-5-tert-butyl-3-(2-methoxyethyl)-1,3,4-thiadiazol-2(3H)-ylidene]-5-(trifluoromethyl)benzamide], the figures for the Ki at rat CB2 (setting [1]) and at human CB2 receptors (setting [2]) were 3.6 nM and 39 nM, respectively.
The matching figures for `CCCCn1nc(C(C)(C)C)s/c1=N\C(=O)c1cc(C(F)(F)F)ccc1ON=C(N)C(=O)OCC` [Example 176, ethyl amino {[2-({[(2Z)-3-butyl-5-tert-butyl-1,3,4-thiadiazol-2(3H)-ylidene]amino}carbonyl)-4-(trifluoromethyl)phenoxy]imino}acetate]: 1.7 nM and 6.1 nM.
For `CCCCn1nc(C(C)(C)C)s/c1=N\C(=O)c1cc(C(F)(F)F)ccc1/N=N/C(C)(C)C` [Example 148, N-[(2Z)-3-butyl-5-tert-butyl-1,3,4-thiadiazol-2(3H)-ylidene]-2-[(E)-tert-butyldiazenyl]-5-(trifluoromethyl)benzamide], in that order: 15 nM and 6.2 nM.
For `CCCCn1ccc(C(C)(C)C)c/c1=N\C(=O)c1cc(C(F)(F)F)ccc1ONC(C)(C)C` [Example 157, 2-[(tert-butylamino)oxy]-N-[(2E)-1-butyl-4-tert-butylpyridin-2(1H)-ylidene]-5-(trifluoromethyl)benzamide], in that order: 9.4 nM and 128 nM.
Turning to `CCCCn1/c(=N/C(=O)c2cc(C(F)(F)F)ccc2O/N=C(\C)C(F)(F)F)cc(C(C)(C)C)n1C` [Example 194, N-[(3E)-2-butyl-5-tert-butyl-1-methyl-1,2-dihydro-3H-pyrazol-3-ylidene]-5-(trifluoromethyl)-2-({[(1E)-2,2,2-trifluoro-1-methylethylidene]amino}oxy)benzamide], the results for the Ki on rat CB2 (setting [1]) and on human CB2 receptors (setting [2]) were 40 nM and 12 nM, respectively.
For `CCCCn1nc(C(C)(C)C)s/c1=N\C(=O)c1cc(C(F)(F)F)ccc1ON=C(N)C1CC1` [Example 188, 2-({[amino(cyclopropyl)methylene]amino}oxy)-N-[(2Z)-3-butyl-5-tert-butyl-1,3,4-thiadiazol-2(3H)-ylidene]-5-(trifluoromethyl)benzamide], in that order: 0.9 nM and 2.5 nM.
Regarding `CCCCn1nc(C(C)(C)C)s/c1=N\C(=O)c1cc(C(F)(F)F)ccc1O/N=C(\C)C(C)(C)C` [Example 150, N-[(2Z)-3-butyl-5-tert-butyl-1,3,4-thiadiazol-2(3H)-ylidene]-5-(trifluoromethyl)-2-({[(1E)-1,2,2-trimethylpropylidene]amino}oxy)benzamide], the Ki worked out at 283 nM at rat CB2 (setting [1]) and 216 nM on human CB2 receptors (setting [2]).
For `C/C(=N\Oc1ccc(C(F)(F)F)cc1C(=O)/N=c1\cc(C(C)(C)C)n(C)n1C[C@H]1CCCO1)C(F)(F)F` [Example 178, N-{(3E)-5-tert-butyl-1-methyl-2-[(2R)-tetrahydrofuran-2-ylmethyl]-1,2-dihydro-3H-pyrazol-3-ylidene}-5-(trifluoromethyl)-2-({[(1E)-2,2,2-trifluoro-1-methylethylidene]amino}oxy)benzamide], in that order: 40 nM and above 1000 nM.
The matching figures for `CC(C)(C)NOc1ccc(C(F)(F)F)cc1C(=O)/N=c1\sc(C(C)(C)C)nn1CC1CCO1` (stereo not shown) [Example 177, 2-[(tert-butylamino)oxy]-N-[(2Z)-5-tert-butyl-3-(oxetan-2-ylmethyl)-1,3,4-thiadiazol-2(3H)-ylidene]-5-(trifluoromethyl)benzamide]: 7.3 nM and 15 nM.
The matching figures for `CCCCn1nc(C(C)(C)C)s/c1=N\C(=O)c1cc(C(F)(F)F)ccc1NNC(=O)c1ccncc1` [Example 191, N-[(2Z)-3-butyl-5-tert-butyl-1,3,4-thiadiazol-2(3H)-ylidene]-2-(2-isonicotinoylhydrazino)-5-(trifluoromethyl)benzamide]: 0.9 nM and 0.8 nM.
Regarding `CCCCn1nc(C(C)(C)C)s/c1=N\C(=O)c1cc(C(F)(F)F)ccc1ONC(=O)C(C)(C)C` [Example 169, N-[(2Z)-3-butyl-5-tert-butyl-1,3,4-thiadiazol-2(3H)-ylidene]-2-{[(2,2-dimethylpropanoyl)amino]oxy}-5-(trifluoromethyl)benzamide], the inhibition constant (Ki) at rat CB2 (setting [1]) and on human CB2 receptors (setting [2]) was 0.6 nM throughout.
Take `CCCCn1/c(=N/C(=O)c2cc(C(F)(F)F)ccc2NNC(=O)C(C)(C)C)cc(C(C)(C)C)n1C` [Example 198, N-[(3E)-2-butyl-5-tert-butyl-1-methyl-1,2-dihydro-3H-pyrazol-3-ylidene]-2-[2-(2,2-dimethylpropanoyl)hydrazino]-5-(trifluoromethyl)benzamide]: the Ki turned out to be 1.7 nM on rat CB2 (setting [1]) and 0.4 nM at human CB2 receptors (setting [2]).
The matching figures for `CCCCn1nc(C(C)(C)C)s/c1=N\C(=O)c1cc(C(F)(F)F)ccc1ON=C(N)c1cccnc1` [Example 204, 2-({[amino(pyridin-3-yl)methylene]amino}oxy)-N-[(2Z)-3-butyl-5-tert-butyl-1,3,4-thiadiazol-2(3H)-ylidene]-5-(trifluoromethyl)benzamide]: 13 nM and 87 nM.
For `Cn1c(C(C)(C)C)c/c(=N\C(=O)c2cc(C#N)ccc2ONC(C)(C)C)n1C[C@H]1CCCO1` [Example 161, 2-[(tert-butylamino)oxy]-N-{(3E)-5-tert-butyl-1-methyl-2-[(2R)-tetrahydrofuran-2-ylmethyl]-1,2-dihydro-3H-pyrazol-3-ylidene}-5-cyanobenzamide], in that order: 11 nM and 209 nM.
